Data taken from a melting point compilation (Tetko et al.; mined from patent text by program, amines drawn as free bases though some values may be those of a salt).

SMILES | melting point
CS(=O)(=O)c1cccc(Br)c1 | 63 to 64 °C
O=S1NC(Cc2cc3cc(F)ccc3o2)=NO1 (stereo not given) | 144 to 145 °C
COc1ccc([N+](=O)[O-])cc1N1CCNCC1 | 84 to 87 °C
COC(=O)c1cc2ccoc2s1 | 86 to 88 °C
CCOC(=O)c1nccn1C1Sc2ccccc2C1=O (stereo not given) | 174 °C
COCCNC(=O)c1cc(F)cc(-c2cccc3cc(Cc4cc(F)cc(Cl)c4)sc23)c1 | 72 to 73 °C
CCCCCCCCCCCCCCCCSCC(CNS(=O)(=O)CCCCl)NC(=O)OC(C)(C)C (stereo not given) | 100 to 102 °C
C=CCN1CCN(c2cc(-c3ccccc3)c3ccc(=O)ccn23)CC1 | 125 °C
COc1ccccc1Oc1c(Cl)nc(-c2cccs2)nc1Cl | 118 to 120 °C
Cn1c(CCN2CCC(c3ccccc3)CC2)nc2cc(Br)c3ccccc3c21 | 182 to 184 °C
O=C(O)c1cn(-c2ccccc2)c2c(F)c(F)c(F)cc2c1=O | 88 to 90 °C
CC(C)(C#N)OC(=O)Nc1ccc(-c2ncn(-c3ccc(OC(F)(F)F)cc3)n2)cc1 | 172 to 175 °C
CC1(C)C(C=C2C(C(F)(F)F)C2(F)F)C1C(=O)O (stereo not given) | 45.7 °C
CN1C(=O)CN=C(c2ccccc2F)c2cc(NC(=O)NC(C)(C)CO)ccc21 | 162 to 176 °C
COc1cc(OC)c(-c2nc(NC(=O)c3cc4cc(C)cc(C)c4n3CC(=O)O)sc2CCC2CCCCC2)cc1Br | 221 to 222 °C
COc1cc(N)c(Cl)cc1C(=O)NC1CCN(CCNC(=O)C(CO)c2ccccc2)CC1OC (stereo not given) | 114 °C
CON(C)C(=O)C(O)CNC(=O)c1cc2cc(Cl)ccc2[nH]1 (racemic) | 192 °C
CC(C)CCc1sc(NC(=O)c2cc([N+](=O)[O-])cn2C)nc1C(=O)O | 296 to 300 °C
CNC(=O)c1ccccc1Nc1nc(Nc2ccc3c(c2)CCC(F)(F)CC3)ncc1Cl | 160 to 168 °C
COC1=C(OC)C(=O)C2=C(CC(CCCOc3ccc(C(=O)N(C)C)cc3)C2)C1=O | 100 to 102 °C
CC(=O)c1ccc2c(c1)CCc1ccc(C(=O)O)cc1S2(=O)=O | 219 to 221 °C
O=S(=O)(c1ccc(O)cc1)c1ccc(-c2ccccc2)cc1 | 246 to 248 °C
Cc1nn(-c2cc(Oc3ccc(N)cc3)c(Cl)cc2F)c(=O)n1C(F)F | 133 to 135 °C
CN(C)Cc1cccc(-c2cc(C(N)=O)ccc2C(N)=O)c1 | 162 to 165 °C

SMILES | melting point
CC(=O)NC[C@H]1CN(c2ccc(N3CCC(=C(C)C#N)CC3)c(F)c2)C(=O)O1 | 181 to 182 °C
C#CCN1CCC(OC)(c2cc(F)cc(Sc3ccc(C(C)=NO)cc3)c2)C1 (stereo not given) | 97 to 99 °C
COc1cc2c(cc1Nc1ncc(Cl)c(Nc3ccc(C#N)cc3OC)n1)CCN(CC(=O)N(C)C)CC2 | 92 to 105 °C
COC(=O)CS(=O)C(C)c1ccc(-c2ccccc2F)cc1 (stereo not given) | 79 °C
O=[N+]([O-])c1ccccc1S(=O)(=O)NOCc1ccccc1 | 148 to 151 °C
CC/C(=N\OC(F)F)c1ccc(Cl)c2nc3n(c12)CCCN3c1c(C)nc(OC)nc1C | 199 to 200 °C
CCCn1c(CCO)nc2c(N)nc3cc(OCCCNC(=O)C(C)C)ccc3c21 | 190 to 192 °C
Cn1c(=O)cc(CC(=O)O)c2cc(C#N)ccc21 | 238 °C
OCC1CNCCC1c1ccc(F)cc1 (stereo not given) | 123 to 124 °C
CCCC1=C(C#N)C(c2cccc3c2OCCC3)c2c[nH]nc2N1 (stereo not given) | 230 °C
CC(=O)SCCC(=O)N1C(C(=O)O)CC(=O)N1c1ccccc1 (stereo not given) | 144 to 146 °C
COCc1cc(Cl)n2nc(SCc3ccccc3)nc2n1 | 79 °C
O=C(O)c1cn(C2CC2)c2nc3cc(N4CCNC(c5ccco5)C4)c(F)cc3cc2c1=O (racemic) | 240 to 241 °C
O=C(O)C=C1SC(=Nc2cccc3ccccc23)N(c2cccc3ccccc23)C1=O | 250 to 253 °C
COC(=O)c1c(-c2ccc(F)cc2)nc(N)nc1C(C)C | 146 to 147 °C
COCCN(C)Cc1ncc(C(=O)Nc2nc3c(OC)ccc(N4CCOCC4)c3s2)n1C | 176 to 178 °C
C[C@@H](O)CNC(=O)N1CC(c2ccc(C(F)(F)F)cc2)C1 | 107 to 108 °C
CN1C(C(=O)Nc2cccccc2=O)=C(O)c2sccc2S1(=O)=O | 242 to 245 °C
O=c1c2ccccc2ncn1C1CCN(Cc2ccccc2)CC1 | 147 °C
CN(c1cccc(-c2ccnc3c([N+](=O)[O-])cnn23)c1)S(=O)(=O)c1ccccc1 | 177 to 179 °C
COc1c(C(O)CNC(C)(C)Cc2ccccc2C)ccc(O)c1O (stereo not given) | 114 °C
NC(=O)c1c(Cl)cc(Cl)c(O)c1Cl | 204 to 206 °C
COc1ccccc1N1CCN(CCNC(=O)c2nsc3ccccc23)CC1 | 107 to 110 °C
CCc1c(N2CCC(C(N)c3ccccn3)C2)c(F)c(N)c2c(=O)c(C(=O)O)cn(C3CC3F)c12 (stereo not given) | 127 to 129 °C

SMILES | melting point
COc1cc(C(=O)O)ccc1OC(=O)c1ccc(OC)c(C23CC4CC(CC(C4)C2)C3)c1 | 282 to 284 °C
Cc1cc2c(cc1Br)C(=O)CC(C)(C)O2 | 95 to 96 °C
C=CCNC(=O)N1CC(Oc2ccc(F)cc2)C1 | 92 to 94 °C
COC(=O)Cc1csc2cc(-c3ccccc3)c(C=O)n12 | 118 to 120 °C
O=C(NCC(F)(F)F)c1nn(-c2ccc(F)cc2F)c2c1C1CCC2C1 (stereo not given) | 149 to 152 °C
COc1ccc(-c2cccs2)c2c1c(CCN(C)C)cn2C | 131 to 133 °C
O=C(NCCCCN1CCC(c2ccc3c(c2)OCO3)CC1)c1ccc(NC(=O)c2ccc(Cl)cc2)cc1 | 238 to 248 °C
CCOC(=O)c1csc(NC(c2ccccc2)(c2ccccc2)c2ccccc2)n1 | 140 to 141 °C
CCCc1ncc(/C=C(\Cc2cccs2)c2nnn[nH]2)n1Cc1ccccc1Cl | 174 to 175 °C
O=C(Nc1c(Cl)cc(-c2n[nH]c(=O)o2)c2c1OCCO2)OCc1ccccc1 | 230 °C
CS(=O)(=O)c1ccc(-c2cc([N+](=O)[O-])sc2-c2ccc(F)cc2)cc1 | 155 to 156 °C
Cc1cc2nc(NC(=O)C(C)(C)C)[nH]c(=O)c2[nH]1 | 156 to 157 °C
CCC1CC(=O)N(CCc2ccc(N)cc2)N=C1c1ccc(OC)c(OC)c1 (stereo not given) | 112 °C
Cc1ccc(NC(=O)Nc2cc(C(C)(C)C)sc2CNC(=O)CN)cc1 | 93 to 96 °C
O=S(=O)(c1ccccc1Cl)N1CCNc2ncc(I)cc21 | 146 to 147 °C
COC(=O)CN(CC(=O)OC)S(=O)(=O)c1ccc(C)cc1 | 99 to 100 °C
CCCCc1nc(SC)c(C(C)=O)n1Cc1ccc(-c2ccccc2S(=O)(=O)NC(=O)NCCC)cc1 | 176 to 177 °C
O=C(Nc1ccccc1N1CCc2ccccc21)C1CCC1 | 81 to 83.5 °C
O=C(O)c1ccc(-c2nc(-c3cccc(Oc4ccccc4)c3)no2)cc1 | 292 to 293 °C
CCOc1cccc(-c2ccc(C3=CCN(S(=O)(=O)C4(C(=O)O)CCOCC4)CC3)cc2C)c1 | 203 to 205 °C
COc1ccc(-c2cc(=Nc3ccc(OCC4CO4)cc3)n(C)c(=O)n2C)cc1OC (stereo not given) | 155 to 157 °C
O=C(CNC(=O)OCc1ccc([N+](=O)[O-])cc1)Nc1ccc(C(=O)OCI)cc1 | 162 to 164 °C
